Assay results reported in patent US20230098332A1, “HETEROCYCLIC DERIVATIVES AS TRMP8 ANTAGONISTS” (Givaudan SA, priority 2020, published 2023).

Tests used:
[1] = test system: trained group of panelists; assay: Sensory studies in aqueous solution (trained panelists, cooling in the mouth); format: in vivo, human; conditions: 40 ppm in aqueous solution, 20 mL swilled in the mouth for 60 seconds; for Cooling after 1 hour / Max. cooling: averaged panel score 0-10
Description: The compounds as listed below in Table 2 were dissolved at a concentration of 1 wt-% in propylene glycol. These solutions were then dispensed in appropriate quantities into deionized water containing 0.5 wt-% Poloxamer 407 (which is a hydrophilic non-ionic surfactant, e.g., commercially available from SigmaAldrich) and 0.25 wt-% Cremaphor® RH40 (obtained from BASF) as solubilizer, to obtain the desired final concentration of 40 ppm (parts per million) of the respective compound.
A trained group of panelists evaluated the aqueous solutions containing test compound by swilling 20 mL of the solution in the mouth for 60 seconds, followed by spitting, without rinsing the mouth afterwards for the duration of the evaluation. Panelists evaluated and recorded the cooling performance as well as other sensorial and organoleptic attributes at different timepoints over a period of two hours. Cooling performance was rated on a scale from 0 to 10 with 0 being no effect and 10 being freezing. Scores were averaged for all panelists and the cooling intensity qualified as “N” for “none” (score of 0), “L” for “low” (score above 0, up to 1), “M” for “medium” (score above 1, up to 4), “S” for “strong” (score above 4, up to 8) and “E” for “extreme” (score above 8), which are provided in Table 2.

[2] = test system: trained group of panelists; assay: Sensory studies in model dentifrice (trained panelists, cooling in the mouth); format: in vivo, human; conditions: 100 ppm in model unflavored dentifrice, brushing with 1 g for 60 seconds; for Cooling after 1 hour / Max. cooling: averaged panel score 0-10
Description: The compounds listed in Table 3 were dissolved at a concentration of 1 wt-% in propylene glycol. These solutions were then dispersed in appropriate quantities to obtain the desired final concentration of 100 ppm (parts per million) of the test compound into a model, unflavored dentifrice, the formula of which is given below (ingredients obtained from the suppliers respectively indicated in parenthesis).
A trained group of panelists evaluated the dentifrice containing a compound of formula (I), by brushing their teeth with 1 g of the dentifrice using a toothbrush for 60 seconds, followed by spitting, without rinsing the mouth afterwards for the duration of the evaluation. Panelists evaluated and recorded the cooling performance as well as other sensorial and organoleptic attributes at different timepoints over a period of two hours. Cooling performance was rated on a scale from 0 to 10 with 0 being no effect and 10 being freezing. Scores were averaged for all panelists and the cooling intensity qualified as “N” for “none” (score of 0), “L” for “low” (score above 0, up to 1), “M” for “medium” (score above 1, up to 4), “S” for “strong” (score above 4, up to 8) and “E” for “extreme” (score above 8), which are summarized below in Table 3.

hTRPM8 = target: T1, hTRPM8 (Homo sapiens, UniProt Q7Z2W7); assay: Assay on TRPM8 modulators: calcium imaging (Fluo-4, Flexstation) in HEK293 cell line stably expressing hTRPM8; format: cell-based; conditions: TRPM8 agonist activity, calcium influx, HEK293 stably expressing hTRPM8, sigmoidal dose-response fit
T1 construct: expressed in transfected cells
Method in brief: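 Calcium influx monitored by Fluo-4 (2.7 μM with […] probenecid, 1 h 37 °C loading) in HEK293 cells stably expressing hTRPM8, in HEPES buffer pH 7.4 with 2 mM CaCl2. Fluorescence read 15 s before and 105 s after adding serial compound dilutions. Maximal activation relative to solvent and 31.6 μM menthol; EC50 from sigmoidal fit.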

T1 sequence (Q7Z2W7 whole entry): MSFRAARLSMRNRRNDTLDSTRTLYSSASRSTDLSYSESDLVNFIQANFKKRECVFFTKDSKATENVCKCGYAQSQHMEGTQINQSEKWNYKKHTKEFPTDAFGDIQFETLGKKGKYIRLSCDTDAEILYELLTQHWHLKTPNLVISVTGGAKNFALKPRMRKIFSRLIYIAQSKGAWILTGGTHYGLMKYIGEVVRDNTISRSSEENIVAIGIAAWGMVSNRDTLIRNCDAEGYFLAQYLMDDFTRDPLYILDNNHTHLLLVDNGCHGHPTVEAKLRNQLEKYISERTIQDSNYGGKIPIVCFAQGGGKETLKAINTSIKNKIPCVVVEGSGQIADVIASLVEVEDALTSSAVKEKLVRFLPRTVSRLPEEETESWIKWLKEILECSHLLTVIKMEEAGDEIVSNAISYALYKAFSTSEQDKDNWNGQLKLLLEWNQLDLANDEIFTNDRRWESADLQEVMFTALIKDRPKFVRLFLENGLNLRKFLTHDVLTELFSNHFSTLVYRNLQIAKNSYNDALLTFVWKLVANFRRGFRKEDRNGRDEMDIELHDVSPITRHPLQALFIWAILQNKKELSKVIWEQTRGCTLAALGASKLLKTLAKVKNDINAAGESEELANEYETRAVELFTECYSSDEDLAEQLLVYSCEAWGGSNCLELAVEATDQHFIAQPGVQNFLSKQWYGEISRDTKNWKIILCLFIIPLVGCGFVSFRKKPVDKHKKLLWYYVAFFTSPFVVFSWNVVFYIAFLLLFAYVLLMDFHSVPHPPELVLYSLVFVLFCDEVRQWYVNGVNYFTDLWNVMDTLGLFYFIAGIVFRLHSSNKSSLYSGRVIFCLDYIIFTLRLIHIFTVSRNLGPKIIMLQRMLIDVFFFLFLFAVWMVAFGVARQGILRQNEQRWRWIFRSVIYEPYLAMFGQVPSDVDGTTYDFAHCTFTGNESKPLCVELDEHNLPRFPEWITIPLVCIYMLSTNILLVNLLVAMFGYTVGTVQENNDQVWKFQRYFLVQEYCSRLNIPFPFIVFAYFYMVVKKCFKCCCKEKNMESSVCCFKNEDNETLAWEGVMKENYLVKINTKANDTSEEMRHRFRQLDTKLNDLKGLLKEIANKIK

SMILES | Time of max. cooling [1] [min] | Cooling after 1 hour [1] | Max. cooling [1] | Time of max. cooling [2] [min] | Cooling after 1 hour [2] | Max. cooling [2] | EC50 (hTRPM8) [nM]
Cc1cc(C)c(OCCN2CCN(C)CC2)c(Cc2ccccc2)c1.Cl.Cl [compound 71, 1-(2-(2-benzyl-4,6-dimethylphenoxy)ethyl)-4-methylpiperazine dihydrochloride] | 20 | M (“M” for “medium” (score above 1, up to 4)) | S (“S” for “strong” (score above 4, up to 8)) | 10 | L (“L” for “low” (score above 0, up to 1)) | M (“M” for “medium” (score above 1, up to 4)) | –
Cc1ccc(OCCN2CCN(C)CC2)c(Cc2ccccc2)c1.Cl [compound 85, 1-(2-(2-benzyl-4-methylphenoxy)ethyl)-4-methylpiperazine hydrochloride] | 20 | M (“M” for “medium” (score above 1, up to 4)) | S (“S” for “strong” (score above 4, up to 8)) | 20 | L (“L” for “low” (score above 0, up to 1)) | L (“L” for “low” (score above 0, up to 1)) | –
Cc1cc(C)c(OCCN2CCN(C)CC2)c(Cc2ccccc2C#N)c1.Cl [compound 118, 2-(3,5-dimethyl-2-(2-(4-methylpiperazin-1-yl)ethoxy)benzyl)benzonitrile hydrochloride] | 20 | S (“S” for “strong” (score above 4, up to 8)) | S (“S” for “strong” (score above 4, up to 8)) | 30 | M (“M” for “medium” (score above 1, up to 4)) | M (“M” for “medium” (score above 1, up to 4)) | < 50
Cc1cc(C)c(OCCN2CCOCC2)c(Cc2ccccc2C#N)c1 [compound 122, 2-(3,5-dimethyl-2-(2-morpholinoethoxy)benzyl)benzonitrile] | 10 | M (“M” for “medium” (score above 1, up to 4)) | S (“S” for “strong” (score above 4, up to 8)) | 10 | M (“M” for “medium” (score above 1, up to 4)) | S (“S” for “strong” (score above 4, up to 8)) | < 50
Cc1cc(C)c(CCCN2CCOCC2)c(Oc2ccccc2C#N)c1 [compound 125, 2-(3,5-dimethyl-2-(3-morpholinopropyl)phenoxy)benzonitrile] | 10 | M (“M” for “medium” (score above 1, up to 4)) | M (“M” for “medium” (score above 1, up to 4)) | 30 | M (“M” for “medium” (score above 1, up to 4)) | M (“M” for “medium” (score above 1, up to 4)) | < 50
Cc1ccc(OCCN2CCN(C)CC2)c(Cc2ccccc2C#N)c1.Cl.Cl [compound 130, 2-(5-methyl-2-(2-(4-methylpiperazin-1-yl)ethoxy)benzyl)benzonitrile dihydrochloride] | 30 | S (“S” for “strong” (score above 4, up to 8)) | S (“S” for “strong” (score above 4, up to 8)) | 30 | M (“M” for “medium” (score above 1, up to 4)) | M (“M” for “medium” (score above 1, up to 4)) | –
Cc1ccc(N(C)CCN2CCN(C)CC2)c(Cc2ccccc2)c1 [compound 137, 2-benzyl-N,4-dimethyl-N-(2-(4-methylpiperazin-1-yl)ethyl)aniline] | 10 | M (“M” for “medium” (score above 1, up to 4)) | S (“S” for “strong” (score above 4, up to 8)) | 10 | L (“L” for “low” (score above 0, up to 1)) | M (“M” for “medium” (score above 1, up to 4)) | 50 to 300
Cc1cc(C)c(OCCN2CCOCC2)c(Cc2c(F)cccc2F)c1 [compound 149, 4-(2-(2-(2,6-difluorobenzyl)-4,6-dimethylphenoxy)ethyl)morpholine] | 20 | M (“M” for “medium” (score above 1, up to 4)) | S (“S” for “strong” (score above 4, up to 8)) | 30 | M (“M” for “medium” (score above 1, up to 4)) | M (“M” for “medium” (score above 1, up to 4)) | 50 to 300
Cc1cc(C)c(OCCN2CCOCC2)c(Cc2ccccc2F)c1 [compound 153, 4-(2-(2-(2-fluorobenzyl)-4,6-dimethylphenoxy)ethyl)morpholine] | 20 | M (“M” for “medium” (score above 1, up to 4)) | M (“M” for “medium” (score above 1, up to 4)) | 5 | L (“L” for “low” (score above 0, up to 1)) | M (“M” for “medium” (score above 1, up to 4)) | 50 to 300
